Experimental data as given in patent publication US20140249105A1, “NOVEL CERAMIDE ANALOGUES, PROCESSES FOR PREPARING SAME AND USES THEREOF” (Diverchim, priority 2011, published 2014).
Values belong to the molecule of their own block, whether it stands above or below them. * marks the point of attachment. MeOSuc = COC(=O)CCC(=O)*; CH2Cl = ClC*

Tests used:
B16 melanocytes [1] = assay: Screening of anti-melanogenesis activity: melanin assay in B16 melanocytes stimulated with NDP-MSH; assay type: cell-based; conditions: 72 h
Procedure: This was carried out for compounds in solution in DMSO. The synthesis of melanin was measured in a model of B16 melanocytes stimulated with a stable derivative of α-MSH (natural hormone that stimulates melanogenesis: Melanocyte Stimulating Hormone): NDP-MSH ([Nle^4, DPhe7]-α-MSH).
(§1) Melanocytes were seeded on a 96-well plate and cultured for 24 h (37° C., 5% CO2, DMEM 1 g/L glucose without phenol red supplemented with glucose 3 g/L, L-glutamine 2 mM, penicillin 50 U/mL, streptomycin 50 μg/mL, fetal calf serum (FCS) 10%). […] Each experimental condition was carried out with n=3, apart from the controls carried out with n=6. The cells were then incubated for 72 h. Wells without cells received in parallel the same quantities of medium, supplemented or not with NDP-MSH and with or without the test compounds or the reference in order to quantify the background noise associated with the presence of the compounds.
At the end of 72 hours of incubation, the total melanin (intra- and extracellular) was quantified by measuring the absorbance of each sample at 405 nm (direct reading of the culture plates) against a standard range of melanin (melanin concentrations tested from 0.78 to 100 μg/mL). The background noise, measured in the wells without cells, was subtracted from the values measured so that only the effect connected with the production of melanin is taken into account, without including any interference connected with the presence of the compounds. The results were expressed in percentage of melanin relative to the control as well as in percentage inhibition.

human leukocyte elastase = target: T1, human leukocyte elastase (Homo sapiens, UniProt P08246); assay: Inhibition of leukocyte elastase (EnzChek Elastase assay kit); assay type: biochemical; conditions: incubation 1 hour
T1 sequence (P08246 30-267): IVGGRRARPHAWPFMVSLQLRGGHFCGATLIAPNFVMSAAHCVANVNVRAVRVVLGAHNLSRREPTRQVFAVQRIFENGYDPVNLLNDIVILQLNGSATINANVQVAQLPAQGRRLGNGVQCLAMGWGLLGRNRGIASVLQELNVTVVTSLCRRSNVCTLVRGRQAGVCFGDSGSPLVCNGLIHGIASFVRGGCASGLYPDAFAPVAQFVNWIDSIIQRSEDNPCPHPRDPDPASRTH
Description: The elastases are a sub-family of serine proteases responsible for the degradation of elastin. The numerous natural substrates of this enzyme include, in addition to elastin, the proteoglycans of cartilage, fibronectin and the type I, II, III and IV collagens. At the cutaneous level, inhibition of elastase can combat the effects of ageing, whether or not photo-induced, and limit the appearance of wrinkles and stretch marks. • Biological model: human leukocyte elastase • Conditions: • Control (n=6) • Reference: AAPV (N-methoxysuccinyl-Ala-Ala-Pro-Val-chloromethyl ketone) 100 μM (n=6) • compounds tested (n=2) • Incubation: 1 hour • Assay: The activity of human leukocyte elastase was evaluated using the EnzChek® Elastase assay kit. The measurement of activity is based on the use of a fluorescent substrate (DQTM Elastin) whose fluorescence is “quenched” through the presence of “quencher” groups at the level of the lytic sites. After action of the enzyme, the “quencher” groups are released and the fluorescence emitted is proportional to the activity of the enzyme. The results are expressed in percentage inhibition of the enzyme activity.

[2] = target: T2, tyrosinase (DOPA oxidase) (Homo sapiens, UniProt P14679); assay: Screening of anti-tyrosinase activity: DOPA oxidase reaction on separated epidermis, count of DOPA positive melanocytes per mm2; assay type: cell-based
T2 construct: from tissue; host or cells: separated human epidermis from a frozen abdominoplasty (melanocytes in situ)
T2 sequence (P14679 19-529): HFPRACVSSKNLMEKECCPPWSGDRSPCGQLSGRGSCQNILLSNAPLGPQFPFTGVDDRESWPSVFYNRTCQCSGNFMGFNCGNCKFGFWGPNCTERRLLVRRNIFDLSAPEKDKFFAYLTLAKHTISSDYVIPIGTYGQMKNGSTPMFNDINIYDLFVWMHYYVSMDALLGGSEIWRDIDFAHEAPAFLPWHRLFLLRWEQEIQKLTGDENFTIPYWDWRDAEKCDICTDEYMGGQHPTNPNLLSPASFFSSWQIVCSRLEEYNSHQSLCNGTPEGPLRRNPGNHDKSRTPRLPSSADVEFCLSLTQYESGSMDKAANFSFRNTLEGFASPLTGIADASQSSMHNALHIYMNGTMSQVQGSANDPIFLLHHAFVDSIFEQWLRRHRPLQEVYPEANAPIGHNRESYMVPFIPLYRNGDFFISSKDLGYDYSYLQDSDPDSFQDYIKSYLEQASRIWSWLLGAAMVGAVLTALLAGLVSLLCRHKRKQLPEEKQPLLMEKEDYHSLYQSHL
Procedure: The products are tested in solution at 30 μg/mL in DMSO. Epidermis samples originating from a frozen abdominoplasty (person) were separated by incubation in 2N NaBr for 1.0 h at 37° C. They were then fixed in a buffered formolized fixing agent, rinsed and put in contact with the volume/volume mixture: solutions of L-DOPA/test formulation. After incubation, they were rinsed and mounted between slide and cover slip with mounting liquid of the Aquatex type. Observation was by optical microscopy with ×10 objective. Images were obtained with a tri CCD Sony DXC […] camera and stored using the Leica IM1000 data archiving software. For each batch, several microscope fields were analysed using the LEICA QWin image analysis software. For each field, the DOPA positive melanocytes were counted and the area of the zone was measured to determine the melanocyte count per mm^2.

[3] = test system: Human dermal fibroblasts aged according to the Hayflick model (P17NHDF); assay: Proliferation of aged human dermal fibroblasts, [3H]-thymidine incorporation; assay type: cell-based; conditions: 72 hours
Procedure: Thus, stimulation of the proliferation of the aged fibroblasts makes possible a partial reversal of the deleterious effects of ageing. • Biological model: Human dermal fibroblasts aged according to the Hayflick model (fibroblasts obtained by successive subculture) (P17NHDF) • Culture conditions: 37° C., 5% CO2 • Culture medium: DMEM/fetal calf serum (FCS) 10% • Conditions: • Control (n=6) • Control normal fibroblasts, not aged (P7 NHDF) (n=2) • Reference: EGF (Epidermal Growth Factor) at 10 ng/mL (n=2) • compounds tested (n=2) • Incubation: 72 hours • Assay: The effects on proliferation were evaluated by measuring the incorporation of [^3H]-thymidine in fibroblasts aged according to the Hayflick model. The Hayflick model consists of applying successive subcultures in order to induce an “aged” phenotype. The results are expressed in percentage stimulation of the incorporation of [^3H]-thymidine.

[4] = test system: Normal human dermal fibroblasts (NHDF); assay: Proliferation and/or migration of fibroblasts, artificial wound coverage; assay type: cell-based; conditions: percentage coverage at 24 h
Procedure: An increase in migration and proliferation of the cells allows an improvement in healing. • Biological model: Normal human dermal fibroblasts (NHDF) • Culture conditions: 37° C., 5% CO2 • Culture medium: DMEM • Conditions: • Control (NHDF in DMEM test medium 0% FCS) (n=6) • Reference: FCS (Fetal Calf Serum) at 10% (n=2) • compounds tested (n=2) • Incubation: 72 hours • Assay: Normal human fibroblasts were seeded on 96-well plates suitable for the migration studies. In these plates, the substrates were pretreated with a solution of collagen and a mask was placed at the centre of each well, preventing adhesion of the cells in this zone and thus forming an artificial wound. After labelling the cells with calcein, the masks were removed and then the cells were treated with the compounds or the reference. The migration of the cells was monitored microscopically for 72 hours, taking photographs at 0 h, 24 h, 48 h and 72 h. The results are expressed in percentage coverage and compared with the untreated control.

[5] = test system: Normal human epidermal keratinocytes (NHEK); assay: Proliferation and/or migration of keratinocytes, artificial wound coverage; assay type: cell-based; conditions: percentage coverage at 48 h
Procedure: The phases of migration and proliferation of cells are major phases of healing that occur after the inflammation phase and are necessary for recolonization of the wound. An increase in the migration and proliferation of cells allows an improvement in healing. • Biological model: Normal human epidermal keratinocytes (NHEK) • Culture conditions: 37° C., 5% CO2 • Culture medium: Keratinocyte-SFM-PE-EGF (keratinocyte culture medium—serum free medium (SFM) without pituitary extract (PE) and without Epidermal Growth Factor (EGF) • Conditions: • Control (n=6) • Reference: EGF (Epidermal Growth Factor) at 10 ng/ml (n=2) • compounds tested (n=2) • Incubation: 72 hours • Assay: Normal human keratinocytes were seeded on 96-well plates suitable for the migration studies. In these plates, the substrates were pretreated with a solution of collagen and a mask was placed at the centre of each well, preventing adhesion of the cells in this zone and thus forming an artificial wound. After labelling the cells with calcein, the masks were removed and then the cells were treated with the compounds or the reference. The migration of the cells was monitored microscopically for 72 hours, taking photographs at 0 h, 24 h, 48 h and 72 h. The results are expressed in percentage coverage and compared with the untreated control.

B16 melanocytes [6] = assay: Viability of the cells, test of reduction of MTT; assay type: cell-based; conditions: 72 h
Procedure: as §1
At the end of the treatment, the cells were incubated in the presence of MTT (3-(4,5-dimethylthiazol-2-yl)-2,5-diphenyl tetrazolium bromide), the conversion of which to blue crystals of formazan is proportional to the activity of succinate dehydrogenase (mitochondrial enzyme). After disruption of the cells, the formazan was dissolved in DMSO medium and the optical density (OD), representative of the number of live cells and of their metabolic reactivity, was measured with a microplate reader at 540 nm (VERSAmax, Molecular Devices).

Inhibition (%) (human leukocyte elastase; 30 μM): 75%
Molecule: CCCCCC=CCC=CCCCCCCCC(=O)NC1CCCC1NC(=O)CCCCCCCC=CCC=CCCCCC (stereo not drawn) [c128]
Normalized data inhibition (%) (B16 melanocytes [1]; 30 μM): 9% | Normalized data inhibition (%) (B16 melanocytes [1]; 100 μM): 93%

Inhibition (%) (human leukocyte elastase; 100 μM): 95%
Molecule: N-methoxysuccinyl-Ala-Ala-Pro-Val-chloromethyl ketone (MeOSuc-AAPV-CH2Cl) [reference compound]

Variation/control ([2]; DOPA positive melanocyte count per mm2 vs DOPA control, product at 30 μg/mL in DMSO): −55
Molecule: O=C(NC1CC1NC(=O)C(F)=CCCCCCCCCCCCCCCO)C(F)=CCCCCCCCCCCCCCCO (stereo not drawn) [c42]
effectiveness for limiting tyrosinase activity compared with reference compounds ([2]; vs ref 1): more effective than the reference compounds | Stimulation (%) ([3]; 3 μM): 48% | % control 24 h ([4]; 3 μM): 130 % control | % control 48 h ([5]; 3 μM): 141 % control

Molecule: O=C(/C=C/CCCCCOC1CCCCO1)N[C@H]1CCC[C@H]1NC(=O)/C=C/CCCCCOC1CCCCO1 (stereo partly drawn) [c27]
inhibition at 30 µM (B16 melanocytes [1]; Melanocyte, 30 μM, read-out: Normalized data inhibition (%)): 12% | inhibition at 100 µM (B16 melanocytes [1]; Melanocyte, 100 μM, read-out: Normalized data inhibition (%)): 110% | Viability (MTT) % stimulated control (B16 melanocytes [6]; 30 μM): 89 % stimulated control | Viability (MTT) % stimulated control (B16 melanocytes [6]; 100 μM): 71 % stimulated control | % control 24 h ([4]; 10 μM): 131 % control

Molecule: CCCCCCCCCCCCCC(=O)NC1CCC(NC(=O)CCCCCCCCCCCCC)C1 (stereo not drawn) [c132]
% control 24 h ([4]; 10 μM): 131 % control | % control 48 h ([5]; 10 μM): 138 % control

Molecule: O=C(/C=C/CCCCCCCCCCCO)N[C@H]1C[C@H]1NC(=O)/C=C/CCCCCCCCCCCO [c7]
Stimulation (%) ([3]; 10 μM): 63%

Molecule: CCCCCCCCCCC/C=C(/F)C(=O)N[C@@H]1CC[C@H](NC(=O)/C(F)=C\CCCCCCCCCCC)C1 [c85]
Stimulation (%) ([3]; 10 μM): 22% | % control 48 h ([5]; 10 μM): 176 % control

Molecule: EGF: Epidermal Growth Factor, reference
Stimulation (%) ([3]; 10 ng/ml): 89% | % control 48 h ([5]; 10 ng/mL): 161 % control
